Results: US5120538A, “Combinations of compounds isolated from curcuma spp as anti-inflammatory agents” (PT Darya-Varia Laboratoria, priority 1990, dated 1992)

Columns and labels:
[1] = system: choleretic effect of curcumin; conditions: cited from earlier work
[2] = system: cholesterol levels; conditions: rats; cited from earlier work
[3] = system: bacteria; conditions: in vitro; cited from earlier work
[4] = system: inflammation; conditions: cited from earlier work
[5] = system: Oedema of right-hind paw induced by injection of 1% carrageenan solution; assay: Carrageenan-induced paw oedema inhibition in rats; format: in vivo, Male inbred albino rats, Wistar derived LMR strain; conditions: rat, 0.01 g one hour before induction, controls safflower oil
Protocol: Male inbred albino rats of the Wistar derived LMR strain, weighing between 140 and 160 grams are used. Each treatment group consists of ten rats. The rats are fasted for one night and weighed the next morning. Oedema is induced in the right-hind paw of each rat by means of an injection of 1% carrageenan solution. Before the injection and each hour after injection, the volume of the right-hind paw is measured. Measurement of the volume is done by dipping the rats paw into a liquid up to a predetermined mark and measuring or weighing the displaced liquid. The apparatus for measuring volume is calibrated against objects with known volumes. Animals in the treatment groups are administered the drug orally once an hour for three hours before induction of oedema. Animals in the control groups are administered either safflower oil or polyethyleneglycol (PEG) one hour before induction. Piroxicam, a known anti-inflammatory agent used as a positive control, is administered one hour before induction.

Structure (SMILES): O=C(C=Cc1ccc(O)cc1)CC(=O)C=Cc1ccc(O)cc1 [Bis-desmethoxycurcumin, dihydroxydicinnamoyl methane]
- choleretic effect of curcumin [1]: inhibit the choleretic effect of curcumin

Structure (SMILES): COc1cc(/C=C/C(=O)CC(=O)/C=C/c2ccc(O)c(OC)c2)ccc1O [Curcumin, diferuloylmethane]
- cholesterol levels [2]: lower cholesterol levels
- antibacterial activity [3]: antibacterial activity
- anti-inflammatory effects [4]: anti-inflammatory effects

Structure (SMILES): CN1C(C(=O)Nc2ccccn2)=C(O)c2ccccc2S1(=O)=O [Piroxicam]
- % Oedema Inhibition over 6 Hr. Period After Induction, 1 hr. ([5]; 1 hr. after induction): 25.9%
- % Oedema Inhibition over 6 Hr. Period After Induction, 2 hr. ([5]; 2 hr. after induction): 49.0%
- % Oedema Inhibition over 6 Hr. Period After Induction, 3 hr. ([5]; 3 hr. after induction): 52.6%
- % Oedema Inhibition over 6 Hr. Period After Induction, 4 hr. ([5]; 4 hr. after induction): 43.4%
- % Oedema Inhibition over 6 Hr. Period After Induction, 5 hr. ([5]; 5 hr. after induction): 41.4%
- % Oedema Inhibition over 6 Hr. Period After Induction, 6 hr. ([5]; 6 hr. after induction): 36.5%
